According to patent US20180303809A1, “TREATMENT OF BURN PAIN BY TRPV1 MODULATORS” (Purdue Pharma L.P., priority 2013, published 2018):

Tests used:
Format in all cases: in vivo, rat
male Sprague-Dawley rats [1] = test: Plantar test, thermal hyperalgesia (PWL) in thermal burn pain model; settings: for % Change from Baseline (mean ± S.E.M.) of Paw Withdrawal Latency / Paw Withdrawal Latency (sec) (mean ± S.E.M.): rat burn injury 50° C. 48 s
Experimental: (§1) Test Animals: Each experiment used male Sprague-Dawley rats weighing between 190-260 g at the time of thermal burn injury. The rats were housed two per cage, and were allowed to acclimate to their environment for at least six days before testing began. The rats had free access to food and water at all times, except during testing and prior to oral (PO) administration of a test compound, when food was removed about 16 hours before dosing. The rats were divided into treatment groups, and one of the following compounds was administered to each group at the dose and by the route of administration indicated in Tables 5.2A to 5.2C, 5.3A and 5.3B, and 5.4A and 5.4B: ketorolac (Sigma-Aldrich, St. Louis, Mo.), AMG 517 (selective TRPV1 antagonist described in Em. Doherty et al., “Novel vanilloid receptor-1 antagonists:2. Structure-activity relationships of 4-oxopyrimidines leading to the selection of a clinical candidate,” J Med Chem 50:3515-3527 (2007).) (Purdue Pharma L. P., Cranbury, N.J.), indomethacin (Alexis Biochemicals, Farmingdale, N.Y.), gabapentin (Bosche Scientific, New Brunswick, N.J.), or (S)-3-chloro-5-(1,2-dihydroxyethyl)-N-(5-(trifluoromethyl)pyridin-2-yl)-5′,6′-dihydro-[2,4′-bipyridine]-1′(2′H)-carboxamide (Compound 1). The control groups were administered the vehicle for the compound of formula (I). The volume of administration for PO treatment was 5 ml/kg, and was the same for all treatment groups. Volume of administration for intraperitoneal (i.p.) drug administration was 2 ml/kg.
(§2) To assess the actions of a compound of formula (I) for the treatment or prevention of burn pain, a model of thermal burn pain was used. A thermal burn injury was induced under isofluorane/O2 inhalation anesthesia. To assess mechanical hyperalgesia and weight bearing, a thermal injury was produced by immersing the left hind paw into water maintained at 55° C. for 24 seconds. The left hind paw of non-injured control animals was immersed in 22° C. water for 24 seconds. To assess thermal hyperalgesia, a thermal injury was produced by immersing the left hindpaw into water maintained at 50° C. for 48 seconds; the left hind-paw of non-injured control animals was immersed in 22° C. water for 48 seconds. The animals were assessed for response to noxious mechanical stimuli by determining PWT for mechanical hyperalgesia, weight bearing difference between the injured or non-injured side, or response to noxious thermal stimuli by determining PWL for thermal hyperalgesia, all as described below, prior to drug administration (baseline), then again at 1, 3 and 5 hours after induction of burn injury.
The plantar test was used to assess thermal hyperalgesia. For this test, hind paw withdrawal latencies (PWL) to a noxious thermal stimulus were determined using a plantar test apparatus (commercially available from Ugo Basile of Italy) following the technique described by K. Hargreaves et al., “A New and Sensitive Method for Measuring Thermal Nociception in Cutaneous Hyperalgesia,” Pain 32(1):77-88 (1988). The maximum exposure time was set at 32 seconds to avoid tissue damage and any directed paw withdrawal from the heat source is taken as the end point. Three latencies were determined at each time point and averaged.

male Sprague-Dawley rats [2] = test: Paw pressure assay, mechanical hyperalgesia (PWT) in thermal burn pain model; settings: for % Decrease from Baseline (mean ± S.E.M.) of Paw Withdrawal Threshold / Paw Withdrawal Threshold (g) (mean ± S.E.M.): rat burn injury 55° C. 24 s
Experimental: as §1, §2
The paw pressure assay was used to assess mechanical hyperalgesia. For this assay, hind paw withdrawal thresholds (PWT) to a noxious mechanical stimulus were determined using an analgesimeter (Model 7200, commercially available from Ugo Basile of Italy) as described in C. Stein, “Unilateral Inflammation of the Hindpaw in Rats as a Model of Prolonged Noxious Stimulation: Alterations in Behavior and Nociceptive Thresholds,” Pharmacol. Biochem. and Behavior 31:451-455 (1988). The rat's paw was placed on a small platform, and weight was applied in a graded manner up to a maximum of 250 grams. The endpoint was taken as the weight at which the paw was completely withdrawn. PWT was determined once for each rat at each time point, wherein the affected (ipsilateral; same side as the injury) rear paw was tested. […] All drug treatment groups were compared to the vehicle control group (i.e. injured, administered only the vehicle).

male Sprague-Dawley rats [3] = test: Hind limb weight bearing (incapacitance meter, % WL) in thermal burn pain model; settings: for % WL (mean ± S.E.M.), percentage of weight borne on the burn-injured left hind paw: rat burn injury 55° C. 24 s
Experimental: as §1, §2
A commercially available incapacitance meter was used to determine the weight distribution on the two hind paws of the animal (Linton Incapacitance Tester (Linton Instrumentation, Norfolk, UK)). The weight bearing difference (WBD) between the injured and non-injured hindpaw was measured. The animal was placed in the testing chamber that allows the animal to stand normally, distributing its body weight on the hind limbs for the test. Each hind paw was positioned on a separate pressure sensitive pad, which independently measures the pressure applied by each limb. The device continuously collects data after either a force threshold has been exceeded, or the investigator depresses the start pad. Rats were allowed to acclimate when placed on the apparatus, and when they were stationary, the force exerted was then continuously monitored for 3 s. The endpoint was the amount of pressure applied to each limb over time. Three readings were taken for each rat at each time point, and the average used for data analysis. WBD was expressed as “% WL”, i.e. the percentage of weight borne on the burn-injured left hind paw, using the following formula: […]
where WLP is the weight on the left hind paw and WRP is the weight on the right (untreated) hind paw. The 50% value of % WL corresponds to an equal weight distribution across both hind paws. […]

[4] = 3 mg/kg PO, 1 h after administration
[5] = 3 mg/kg PO, 3 h after administration
[6] = 3 mg/kg PO, 5 h after administration
[7] = 3 mg/kg PO, baseline (prior to drug administration)
[8] = 10 mg/kg PO, 1 h after administration
[9] = 10 mg/kg PO, 3 h after administration
[10] = 10 mg/kg PO, 5 h after administration
[11] = 10 mg/kg PO, baseline (prior to drug administration)
[12] = 30 mg/kg PO, 1 h after administration
[13] = 30 mg/kg PO, 3 h after administration
[14] = 30 mg/kg PO, 5 h after administration
[15] = 30 mg/kg PO, baseline (prior to drug administration)

## O=C(Nc1ccc(C(F)(F)F)cn1)N1CC=C(c2ncc([C@H](O)CO)cc2Cl)CC1 [Compound 1, (S)-3-chloro-5-(1,2-dihydroxyethyl)-N-(5-(trifluoromethyl)pyridin-2-yl)-5′,6′-dihydro-[2,4′-bipyridine]-1′(2′H)-carboxamide]
Male Sprague-Dawley rats [1]; rat burn injury
  Effect on thermal hyperalgesia: did not significantly affect thermal hyperalgesia
Male Sprague-Dawley rats [1]; [4]
  % Change from Baseline (mean ± S.E.M.) of Paw Withdrawal Latency: −45.8 ± 14.53%
  Paw Withdrawal Latency (sec) (mean ± S.E.M.): 8.1 ± 0.77 s
Male Sprague-Dawley rats [1]; [5]
  % Change from Baseline (mean ± S.E.M.) of Paw Withdrawal Latency: −34.4 ± 7.57%
  Paw Withdrawal Latency (sec) (mean ± S.E.M.): 9.2 ± 0.99 s
Male Sprague-Dawley rats [1]; [6]
  % Change from Baseline (mean ± S.E.M.) of Paw Withdrawal Latency: −35.7 ± 15.81%
  Paw Withdrawal Latency (sec) (mean ± S.E.M.): 9.9 ± 0.70 s
Male Sprague-Dawley rats [1]; [7]
  Paw Withdrawal Latency (sec) (mean ± S.E.M.): 14.5 ± 1.22 s
Male Sprague-Dawley rats [1]; [8]
  % Change from Baseline (mean ± S.E.M.) of Paw Withdrawal Latency: −36.0 ± 11.15%
  Paw Withdrawal Latency (sec) (mean ± S.E.M.): 8.9 ± 1.08 s
Male Sprague-Dawley rats [1]; [9]
  % Change from Baseline (mean ± S.E.M.) of Paw Withdrawal Latency: −19.7 ± 10.24%
  Paw Withdrawal Latency (sec) (mean ± S.E.M.): 12.0 ± 0.66 s
Male Sprague-Dawley rats [1]; [10]
  % Change from Baseline (mean ± S.E.M.) of Paw Withdrawal Latency: −22.5 ± 9.23%
  Paw Withdrawal Latency (sec) (mean ± S.E.M.): 11.3 ± 0.98 s
Male Sprague-Dawley rats [1]; [11]
  Paw Withdrawal Latency (sec) (mean ± S.E.M.): 14.4 ± 1.17 s
Male Sprague-Dawley rats [1]; [12]
  % Change from Baseline (mean ± S.E.M.) of Paw Withdrawal Latency: −34.3 ± 6.08%
  Paw Withdrawal Latency (sec) (mean ± S.E.M.): 7.8 ± 0.73 s
Male Sprague-Dawley rats [1]; [13]
  % Change from Baseline (mean ± S.E.M.) of Paw Withdrawal Latency: −15.7 ± 10.29%
  Paw Withdrawal Latency (sec) (mean ± S.E.M.): 11.5 ± 1.04 s
Male Sprague-Dawley rats [1]; [14]
  % Change from Baseline (mean ± S.E.M.) of Paw Withdrawal Latency: −16.6 ± 8.94%
  Paw Withdrawal Latency (sec) (mean ± S.E.M.): 11.2 ± 0.81 s
Male Sprague-Dawley rats [1]; [15]
  Paw Withdrawal Latency (sec) (mean ± S.E.M.): 13.7 ± 0.92 s
Male Sprague-Dawley rats [2]; [4]
  % Decrease from Baseline (mean ± S.E.M.) of Paw Withdrawal Threshold: 59 ± 1.8%
  Paw Withdrawal Threshold (g) (mean ± S.E.M.): 97 ± 4.5 g
Male Sprague-Dawley rats [2]; [5]
  % Decrease from Baseline (mean ± S.E.M.) of Paw Withdrawal Threshold: 63.2 ± 2.1^ %
  Paw Withdrawal Threshold (g) (mean ± S.E.M.): 88 ± 5.6 g
Male Sprague-Dawley rats [2]; [6]
  % Decrease from Baseline (mean ± S.E.M.) of Paw Withdrawal Threshold: 63 ± 1.4%
  Paw Withdrawal Threshold (g) (mean ± S.E.M.): 90 ± 4.0 g
Male Sprague-Dawley rats [2]; [7]
  Paw Withdrawal Threshold (g) (mean ± S.E.M.): 240 ± 8.4 g
Male Sprague-Dawley rats [2]; [8]
  % Decrease from Baseline (mean ± S.E.M.) of Paw Withdrawal Threshold: 55 ± 3.2%
  Paw Withdrawal Threshold (g) (mean ± S.E.M.): 108 ± 73^ g
Male Sprague-Dawley rats [2]; [9]
  % Decrease from Baseline (mean ± S.E.M.) of Paw Withdrawal Threshold: 60 ± 3.2%
  Paw Withdrawal Threshold (g) (mean ± S.E.M.): 97 ± 8.5 g
Male Sprague-Dawley rats [2]; [10]
  % Decrease from Baseline (mean ± S.E.M.) of Paw Withdrawal Threshold: 66 ± 2.4%
  Paw Withdrawal Threshold (g) (mean ± S.E.M.): 83 ± 5.4 g
Male Sprague-Dawley rats [2]; [11]
  Paw Withdrawal Threshold (g) (mean ± S.E.M.): 243 ± 6.5 g
Male Sprague-Dawley rats [2]; [12]
  % Decrease from Baseline (mean ± S.E.M.) of Paw Withdrawal Threshold: 37 ± 2.5 %
  Paw Withdrawal Threshold (g) (mean ± S.E.M.): 153 ± 4.4 g
Male Sprague-Dawley rats [2]; [13]
  % Decrease from Baseline (mean ± S.E.M.) of Paw Withdrawal Threshold: 42 ± 4.5 %
  Paw Withdrawal Threshold (g) (mean ± S.E.M.): 141 ± 9.0 g
Male Sprague-Dawley rats [2]; [14]
  % Decrease from Baseline (mean ± S.E.M.) of Paw Withdrawal Threshold: 61 ± 2.0^ %
  Paw Withdrawal Threshold (g) (mean ± S.E.M.): 95 ± 4.5 g
Male Sprague-Dawley rats [2]; [15]
  Paw Withdrawal Threshold (g) (mean ± S.E.M.): 244 ± 6.0^ g
Male Sprague-Dawley rats [2]; rat, 30 mg/kg
  Effect on mechanical hyperalgesia associated with the burn injury: significantly reduced mechanical hyperalgesia
Male Sprague-Dawley rats [3]; rat burn injury
  Effect on weight bearing: did not significantly affect weight bearing
Male Sprague-Dawley rats [3]; [4]
  % WL (mean ± S.E.M.), percentage of weight borne on the burn-injured left hind paw: 24.4 ± 4.44%
Male Sprague-Dawley rats [3]; [5]
  % WL (mean ± S.E.M.), percentage of weight borne on the burn-injured left hind paw: 42.0 ± 4.51%
Male Sprague-Dawley rats [3]; [6]
  % WL (mean ± S.E.M.), percentage of weight borne on the burn-injured left hind paw: 49.5 ± 3.60%
Male Sprague-Dawley rats [3]; [7]
  % WL (mean ± S.E.M.), percentage of weight borne on the burn-injured left hind paw: 50.6 ± 0.62%
Male Sprague-Dawley rats [3]; [8]
  % WL (mean ± S.E.M.), percentage of weight borne on the burn-injured left hind paw: 37.6 ± 2.54%
Male Sprague-Dawley rats [3]; [9]
  % WL (mean ± S.E.M.), percentage of weight borne on the burn-injured left hind paw: 47.3 ± 1.92%
Male Sprague-Dawley rats [3]; [10]
  % WL (mean ± S.E.M.), percentage of weight borne on the burn-injured left hind paw: 49.0 ± 2.15%
Male Sprague-Dawley rats [3]; [11]
  % WL (mean ± S.E.M.), percentage of weight borne on the burn-injured left hind paw: 50.6 ± 0.71%
Male Sprague-Dawley rats [3]; [12]
  % WL (mean ± S.E.M.), percentage of weight borne on the burn-injured left hind paw: 31.4 ± 3.92%
Male Sprague-Dawley rats [3]; [13]
  % WL (mean ± S.E.M.), percentage of weight borne on the burn-injured left hind paw: 50.3 ± 2.07%
Male Sprague-Dawley rats [3]; [14]
  % WL (mean ± S.E.M.), percentage of weight borne on the burn-injured left hind paw: 55.6 ± 3.03%
Male Sprague-Dawley rats [3]; [15]
  % WL (mean ± S.E.M.), percentage of weight borne on the burn-injured left hind paw: 50.3 ± 0.53%
